The source of these data is PubChem BioAssay AID504520 (The Scripps Research Institute Molecular Screening Center, 2011).

Holding throughout (test): competitive ABPP of LYPLA1 versus anti-target hydrolases – fluorescence, gel-based ABPP, mouse proteome, late-stage follow-up (AID 504520);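 also: soluble proteome from BW5147 murine T cells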
Common to all, as to conditions: FP-rhodamine fluorescence, stronger effect = higher value

For assay [1], the system named is ABHD11.
The test system of assay [2] is ESD.
Assay [3] has as its system LYPLA1.
For assay [4], the system named is LYPLA2.
Assay [5] deals with Platelet-activating factor acetylhydrolase 2, cytoplasmic (Mus musculus) (UniProt Q8VDG7).
Platelet-activating factor acetylhydrolase 2, cytoplasmic (Mus musculus), sequence (Q8VDG7 whole entry, looked up): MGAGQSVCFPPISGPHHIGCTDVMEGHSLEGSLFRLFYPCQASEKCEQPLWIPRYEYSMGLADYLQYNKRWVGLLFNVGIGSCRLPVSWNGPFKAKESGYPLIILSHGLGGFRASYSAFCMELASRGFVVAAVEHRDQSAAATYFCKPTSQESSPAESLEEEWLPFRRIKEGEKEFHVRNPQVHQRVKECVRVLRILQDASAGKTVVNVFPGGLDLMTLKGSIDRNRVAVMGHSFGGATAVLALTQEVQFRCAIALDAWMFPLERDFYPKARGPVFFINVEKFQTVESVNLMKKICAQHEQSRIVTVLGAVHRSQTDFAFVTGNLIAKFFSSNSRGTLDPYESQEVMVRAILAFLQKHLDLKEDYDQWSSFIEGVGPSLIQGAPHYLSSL

Active and inactive are the calls of the source. No rule for the calls is given here.

Broadly, the inhibition is the share of the control response that was lost under treatment. For the compound `O=C(N(c1ccccc1)c1ccc(Br)cc1)n1ncc(C(O)(c2ccccc2)c2ccccc2)n1`, the inhibition is 100% in assay [1] (at 0.75 µM); 0% in assay [1] (inhibition, at 0.03 µM); 100% in assay [1] (inhibition, at 0.15 µM); 0% (inactive) in assay [2] (at 0.75 µM); 0% in assay [2] (inhibition, at 0.03 µM); 0% in assay [2] (inhibition, at 0.15 µM). Besides, the inhibition in assay [3] (at 0.75 µM) is 0% (inactive); in assay [3] (inhibition, at 0.03 µM), 0%; in assay [3] (inhibition, at 0.15 µM) it was 0%; in assay [4] (at 0.75 µM), 0% (inactive); in assay [4] (inhibition, at 0.03 µM) it was 0%; in assay [4] (inhibition, at 0.15 µM) it was 0%. The inhibition in assay [5] (PAFAH2, at 0.75 µM) was 0% (inactive); in assay [5] (PAFAH2, inhibition, at 0.03 µM), 0%; in assay [5] (PAFAH2, inhibition, at 0.15 µM), 0%.

As for `O=C(N(c1ccccc1)c1cccc(Br)c1)n1ncc(C(O)(c2ccccc2)c2ccccc2)n1`, the inhibition in assay [1] (at 0.75 µM) was 100%; in assay [1] (inhibition, at 0.03 µM), 0%; in assay [1] (inhibition, at 0.15 µM), 100%; in assay [2] (at 0.75 µM), 0% (inactive); in assay [2] (inhibition, at 0.03 µM) it was 0%; in assay [2] (inhibition, at 0.15 µM) it was 0%. The inhibition was 0% (inactive) in assay [3] (at 0.75 µM); 0% in assay [3] (inhibition, at 0.03 µM); 0% in assay [3] (inhibition, at 0.15 µM); 0% (inactive) in assay [4] (at 0.75 µM); 0% in assay [4] (inhibition, at 0.03 µM); 0% in assay [4] (inhibition, at 0.15 µM). Besides, the inhibition in assay [5] (PAFAH2, at 0.75 µM) was 0% (inactive); in assay [5] (PAFAH2, inhibition, at 0.03 µM) it was 0%; in assay [5] (PAFAH2, inhibition, at 0.15 µM) it was 0%.

For `COCC1CCCCN1C(=O)n1ncc(C(O)(c2ccccc2)c2ccccc2)n1` (stereo not given), the inhibition was 100% in assay [1] (at 0.75 µM); 100% in assay [1] (inhibition, at 0.03 µM); 100% in assay [1] (inhibition, at 0.15 µM); 0% (inactive) in assay [2] (at 0.75 µM); 0% in assay [2] (inhibition, at 0.03 µM); 0% in assay [2] (inhibition, at 0.15 µM). Further, the inhibition in assay [3] (at 0.75 µM) is 0% (inactive); in assay [3] (inhibition, at 0.03 µM) it was 0%; in assay [3] (inhibition, at 0.15 µM), 0%; in assay [4] (at 0.75 µM), 0% (inactive); in assay [4] (inhibition, at 0.03 µM), 0%; in assay [4] (inhibition, at 0.15 µM) it was 0%. The inhibition in assay [5] (PAFAH2, at 0.75 µM) is 0% (inactive); in assay [5] (PAFAH2, inhibition, at 0.03 µM) it was 0%; in assay [5] (PAFAH2, inhibition, at 0.15 µM), 0%.

Consider `CC1CCN(C(=O)n2ncc(C(O)(c3ccccc3)c3ccccc3)n2)CC1`, for which the inhibition is 100% in assay [1] (at 0.75 µM); 100% in assay [1] (inhibition, at 0.03 µM); 100% in assay [1] (inhibition, at 0.15 µM); 0% (inactive) in assay [2] (at 0.75 µM); 0% in assay [2] (inhibition, at 0.03 µM); 0% in assay [2] (inhibition, at 0.15 µM). Further, the inhibition was 100% in assay [3] (at 0.75 µM); 50% in assay [3] (inhibition, at 0.03 µM); 100% in assay [3] (inhibition, at 0.15 µM); 50% (inactive) in assay [4] (at 0.75 µM); 0% in assay [4] (inhibition, at 0.03 µM); 0% in assay [4] (inhibition, at 0.15 µM). In addition, the inhibition is 25% (inactive) in assay [5] (PAFAH2, at 0.75 µM); 0% in assay [5] (PAFAH2, inhibition, at 0.03 µM); 0% in assay [5] (PAFAH2, inhibition, at 0.15 µM).

In the case of `O=C(N1CCCCC1)n1ncc(C(O)(c2ccccc2)c2ccccc2)n1`, the inhibition in assay [1] (at 0.75 µM) was 100%; in assay [1] (inhibition, at 0.03 µM) it was 100%; in assay [1] (inhibition, at 0.15 µM), 100%; in assay [2] (at 0.75 µM), 25% (inactive); in assay [2] (inhibition, at 0.03 µM) it was 0%; in assay [2] (inhibition, at 0.15 µM) it was 0%. Moreover, the inhibition in assay [3] (at 0.75 µM) is 100%; in assay [3] (inhibition, at 0.03 µM), 50%; in assay [3] (inhibition, at 0.15 µM) it was 100%; in assay [4] (at 0.75 µM) it was 0% (inactive); in assay [4] (inhibition, at 0.03 µM), 0%; in assay [4] (inhibition, at 0.15 µM) it was 0%. Moreover, the inhibition in assay [5] (PAFAH2, at 0.75 µM) is 0% (inactive); in assay [5] (PAFAH2, inhibition, at 0.03 µM), 0%; in assay [5] (PAFAH2, inhibition, at 0.15 µM), 0%.

With `COc1ccc2cc(-c3cnn(C(=O)N(c4ccccc4)c4ccccc4)n3)ccc2c1`, the inhibition in assay [1] (at 0.75 µM) is 25% (inactive); in assay [1] (inhibition, at 0.03 µM), 0%; in assay [1] (inhibition, at 0.15 µM), 0%; in assay [2] (at 0.75 µM), 0% (inactive); in assay [2] (inhibition, at 0.03 µM) it was 0%; in assay [2] (inhibition, at 0.15 µM) it was 0%. The inhibition in assay [3] (at 0.75 µM) is 0% (inactive); in assay [3] (inhibition, at 0.03 µM), 0%; in assay [3] (inhibition, at 0.15 µM), 0%; in assay [4] (at 0.75 µM), 0% (inactive); in assay [4] (inhibition, at 0.03 µM), 0%; in assay [4] (inhibition, at 0.15 µM) it was 0%. In addition, the inhibition in assay [5] (PAFAH2, at 0.75 µM) was 50% (inactive); in assay [5] (PAFAH2, inhibition, at 0.03 µM) it was 0%; in assay [5] (PAFAH2, inhibition, at 0.15 µM), 0%.

Consider `CC(C)CC(O)(CC(C)C)c1cnn(C(=O)N(c2ccccc2)c2ccccc2)n1`, for which the inhibition in assay [1] (at 0.75 µM) is 50% (inactive); in assay [1] (inhibition, at 0.03 µM), 0%; in assay [1] (inhibition, at 0.15 µM), 0%; in assay [2] (at 0.75 µM), 0% (inactive); in assay [2] (inhibition, at 0.03 µM) it was 0%; in assay [2] (inhibition, at 0.15 µM) it was 0%. For the same compound, the inhibition was 0% (inactive) in assay [3] (at 0.75 µM); 0% in assay [3] (inhibition, at 0.03 µM); 0% in assay [3] (inhibition, at 0.15 µM); 0% (inactive) in assay [4] (at 0.75 µM); 0% in assay [4] (inhibition, at 0.03 µM); 0% in assay [4] (inhibition, at 0.15 µM). Also, the inhibition in assay [5] (PAFAH2, at 0.75 µM) is 0% (inactive); in assay [5] (PAFAH2, inhibition, at 0.03 µM), 0%; in assay [5] (PAFAH2, inhibition, at 0.15 µM), 0%.

In the case of `O=C(N(c1ccccc1)c1ccccc1)n1ncc(-c2ccc(Oc3ccccc3)cc2)n1`, the inhibition in assay [1] (at 0.75 µM) was 0% (inactive); in assay [1] (inhibition, at 0.03 µM) it was 0%; in assay [1] (inhibition, at 0.15 µM), 0%; in assay [2] (at 0.75 µM), 0% (inactive); in assay [2] (inhibition, at 0.03 µM), 0%; in assay [2] (inhibition, at 0.15 µM), 0%. For the same compound, the inhibition in assay [3] (at 0.75 µM) was 0% (inactive); in assay [3] (inhibition, at 0.03 µM) it was 0%; in assay [3] (inhibition, at 0.15 µM) it was 0%; in assay [4] (at 0.75 µM), 0% (inactive); in assay [4] (inhibition, at 0.03 µM), 0%; in assay [4] (inhibition, at 0.15 µM), 0%. In addition, the inhibition in assay [5] (PAFAH2, at 0.75 µM) was 75% (inactive); in assay [5] (PAFAH2, inhibition, at 0.03 µM), 0%; in assay [5] (PAFAH2, inhibition, at 0.15 µM) it was 0%.

For `CN(C(=O)n1ncc(C(O)(c2ccccc2)c2ccccc2)n1)c1ccccc1`, the inhibition was 75% (inactive) in assay [1] (at 0.75 µM); 0% in assay [1] (inhibition, at 0.03 µM); 0% in assay [1] (inhibition, at 0.15 µM); 0% (inactive) in assay [2] (at 0.75 µM); 0% in assay [2] (inhibition, at 0.03 µM); 0% in assay [2] (inhibition, at 0.15 µM). In addition, the inhibition was 0% (inactive) in assay [3] (at 0.75 µM); 0% in assay [3] (inhibition, at 0.03 µM); 0% in assay [3] (inhibition, at 0.15 µM); 0% (inactive) in assay [4] (at 0.75 µM); 0% in assay [4] (inhibition, at 0.03 µM); 0% in assay [4] (inhibition, at 0.15 µM). In addition, the inhibition in assay [5] (PAFAH2, at 0.75 µM) is 25% (inactive); in assay [5] (PAFAH2, inhibition, at 0.03 µM) it was 0%; in assay [5] (PAFAH2, inhibition, at 0.15 µM) it was 0%.

On to `COCCCC1CCCCN1C(=O)n1ncc(C(O)(c2ccccc2)c2ccccc2)n1` (stereo not given), for which the inhibition in assay [1] (at 0.75 µM) is 75%; in assay [1] (inhibition, at 0.03 µM) it was 0%; in assay [1] (inhibition, at 0.15 µM), 50%; in assay [2] (at 0.75 µM), 0% (inactive); in assay [2] (inhibition, at 0.03 µM), 0%; in assay [2] (inhibition, at 0.15 µM), 0%. Also, the inhibition is 0% (inactive) in assay [3] (at 0.75 µM); 0% in assay [3] (inhibition, at 0.03 µM); 0% in assay [3] (inhibition, at 0.15 µM); 0% (inactive) in assay [4] (at 0.75 µM); 0% in assay [4] (inhibition, at 0.03 µM); 0% in assay [4] (inhibition, at 0.15 µM). In addition, the inhibition was 0% (inactive) in assay [5] (PAFAH2, at 0.75 µM); 0% in assay [5] (PAFAH2, inhibition, at 0.03 µM); 0% in assay [5] (PAFAH2, inhibition, at 0.15 µM).
